Data: ChEMBL document CHEMBL1201862, “PubChem BioAssay data set” (2004)
The source made the active and inactive calls.

Columns and labels:
[1] = target: FAD-linked sulfhydryl oxidase ALR (Homo sapiens, UniProt P55789); assay: ALR-catalysed DTT oxidation blockers – biochemical, H2O2 detection, luminescence, cherry-pick, dose response (AID 493248)
[2] = target: Alkaline phosphatase, placental type (Homo sapiens, UniProt P05187); assay: human placental alkaline phosphatase inhibition – biochemical, luminescence, confirmation (AID 1512); format: functional
Mucolipin-3 = Mucolipin-3 (Homo sapiens, UniProt Q8TDD5); assay: Fluorescence counterscreen assay for […] agonists: dose response cell-based high-throughput screening assay to identify agonists of the transient receptor potential channel ML3 (TRPML3). [Related pubchem assays: 1424, 1448 ]; format: functional
Vero = assay: cells; format: functional; conditions: Chlorocebus sabaeus
[3] = target: T1, Corticotropin-releasing factor receptor 2/Corticotropin-releasing factor-binding protein (Homo sapiens, UniProt P24387+Q13324); assay: activators of CRF receptor 2 with binding protein – uHTS hits, confirmation (AID 602473); format: functional; conditions: read-out: EC50_Mean
T1 sequence (Q13324 whole entry): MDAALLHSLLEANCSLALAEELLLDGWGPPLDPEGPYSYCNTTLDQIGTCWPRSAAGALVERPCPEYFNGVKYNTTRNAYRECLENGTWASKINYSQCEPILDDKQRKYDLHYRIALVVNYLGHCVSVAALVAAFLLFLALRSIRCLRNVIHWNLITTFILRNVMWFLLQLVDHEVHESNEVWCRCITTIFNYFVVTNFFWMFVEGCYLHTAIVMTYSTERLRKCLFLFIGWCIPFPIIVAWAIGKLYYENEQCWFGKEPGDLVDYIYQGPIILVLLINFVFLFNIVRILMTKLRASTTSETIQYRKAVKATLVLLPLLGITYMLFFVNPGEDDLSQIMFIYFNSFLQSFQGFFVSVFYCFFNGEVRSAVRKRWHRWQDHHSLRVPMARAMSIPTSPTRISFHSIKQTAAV
T1 sequence (P24387 whole entry): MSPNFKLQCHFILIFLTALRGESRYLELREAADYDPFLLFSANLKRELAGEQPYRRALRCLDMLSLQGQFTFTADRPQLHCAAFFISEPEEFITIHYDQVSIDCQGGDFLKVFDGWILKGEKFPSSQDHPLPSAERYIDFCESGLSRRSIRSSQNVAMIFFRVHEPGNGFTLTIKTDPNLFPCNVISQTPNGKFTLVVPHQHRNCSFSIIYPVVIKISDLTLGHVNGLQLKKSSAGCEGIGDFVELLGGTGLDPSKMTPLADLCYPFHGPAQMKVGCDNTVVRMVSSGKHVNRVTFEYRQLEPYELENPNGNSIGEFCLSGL

Ion channel NompC = Ion channel NompC (Danio rerio, UniProt Q7T1G6); assay: Dose response cell-based high-throughput screening assay for agonists of the transient receptor potential channel N1 (TRPN1). [Related pubchem assays (depositor defined):AID1424, AID1448]; format: functional
[4] = target: Epstein-Barr nuclear antigen 1 (Epstein-Barr virus (strain B95-8) (HHV-4) (Human herpesvirus 4), UniProt P03211); assay: inhibition of EBV nuclear antigen 1 DNA binding – biochemical, fluorescence polarization, 1536-well, dose response (AID 2381); parameters: species or system human gammaherpesvirus 4;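 also: fluorescence polarization of a Cy5 DNA probe bound by EBNA-1 protein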
[5] = target: Sphingosine 1-phosphate receptor 4 (Homo sapiens, UniProt O95977); assay: Late-stage fluorescence dose response cell-based assay to identify agonists of the Sphingosine 1-Phosphate Receptor 4 (S1P4): purchased compounds EC50. [Related pubchem assays (depositor defined):AID1509, AID1523, AID1563, AID1686, AID1701, AID1801]; format: functional
[6] = target: Lytic switch protein BZLF1 (Epstein-Barr virus (strain B95-8) (HHV-4) (Human herpesvirus 4), UniProt P03206); assay: inhibition of BZLF1 ZTA DNA binding – biochemical, fluorescence polarization, Epstein-Barr virus, 1536-well, counter-screen for EBNA-1 inhibitor project, dose response (AID 2377); parameters: species or system human gammaherpesvirus 4;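 also: fluorescence polarization of Cy5-labelled ZRE DNA probe bound by purified Zta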
[7] = target: T2, RNA-binding protein pos-1 (Caenorhabditis elegans, UniProt G5EF15); assay: disruptors of C. elegans POS-1 RNA interaction – biochemical, fluorescence polarization, dose response (AID 1964);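 also: purified POS-1 fused to maltose binding protein made in E. coli; potency of compounds blocking POS-1 binding to fluorescent RNA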
T2 sequence (G5EF15 whole entry): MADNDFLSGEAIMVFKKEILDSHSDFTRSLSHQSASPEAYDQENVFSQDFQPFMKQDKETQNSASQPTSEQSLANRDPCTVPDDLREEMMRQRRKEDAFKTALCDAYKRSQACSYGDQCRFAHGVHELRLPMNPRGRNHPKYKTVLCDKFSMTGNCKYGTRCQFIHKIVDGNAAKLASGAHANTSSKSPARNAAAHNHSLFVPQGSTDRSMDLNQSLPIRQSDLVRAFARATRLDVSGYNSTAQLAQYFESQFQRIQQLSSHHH

[8] = target: T3, Zinc finger protein mex-5 (Caenorhabditis elegans, UniProt Q9XUB2); assay: potency of MEX-5 RNA-binding blockers – biochemical, C. elegans, fluorescence polarization, dose response (AID 1960)
T3 sequence (Q9XUB2 whole entry): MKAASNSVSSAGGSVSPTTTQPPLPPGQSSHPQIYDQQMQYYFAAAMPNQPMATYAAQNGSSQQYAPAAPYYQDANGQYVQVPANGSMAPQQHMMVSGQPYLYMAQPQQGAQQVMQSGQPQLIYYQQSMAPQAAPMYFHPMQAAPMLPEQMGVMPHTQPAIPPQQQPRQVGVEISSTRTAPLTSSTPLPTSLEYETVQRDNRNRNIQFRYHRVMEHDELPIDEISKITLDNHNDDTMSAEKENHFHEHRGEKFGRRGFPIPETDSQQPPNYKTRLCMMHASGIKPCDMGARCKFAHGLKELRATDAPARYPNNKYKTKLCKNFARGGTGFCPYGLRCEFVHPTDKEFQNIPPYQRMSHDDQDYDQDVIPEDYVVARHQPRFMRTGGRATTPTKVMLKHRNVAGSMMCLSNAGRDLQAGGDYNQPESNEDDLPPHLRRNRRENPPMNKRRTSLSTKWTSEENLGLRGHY

SUMO-activating enzyme [9] = target: T4, SUMO-activating enzyme (Homo sapiens, UniProt Q9UBT2); assay: blockers of SAE1/SAE2–UBC9 SUMO transfer – biochemical, HTRF, uHTS, primary screen (AID 2006); format: protein-complex assay
T4 sequence (Q9UBE0 whole entry): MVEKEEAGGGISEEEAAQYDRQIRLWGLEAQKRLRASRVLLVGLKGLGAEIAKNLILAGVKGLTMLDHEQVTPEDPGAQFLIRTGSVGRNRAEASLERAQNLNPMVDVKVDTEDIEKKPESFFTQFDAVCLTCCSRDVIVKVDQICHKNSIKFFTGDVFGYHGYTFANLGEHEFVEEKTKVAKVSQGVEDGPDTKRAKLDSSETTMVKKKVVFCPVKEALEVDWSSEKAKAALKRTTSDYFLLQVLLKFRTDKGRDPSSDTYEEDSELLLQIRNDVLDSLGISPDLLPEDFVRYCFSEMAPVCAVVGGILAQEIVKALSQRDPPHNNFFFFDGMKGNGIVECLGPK
T4 sequence (Q9UBT2 whole entry): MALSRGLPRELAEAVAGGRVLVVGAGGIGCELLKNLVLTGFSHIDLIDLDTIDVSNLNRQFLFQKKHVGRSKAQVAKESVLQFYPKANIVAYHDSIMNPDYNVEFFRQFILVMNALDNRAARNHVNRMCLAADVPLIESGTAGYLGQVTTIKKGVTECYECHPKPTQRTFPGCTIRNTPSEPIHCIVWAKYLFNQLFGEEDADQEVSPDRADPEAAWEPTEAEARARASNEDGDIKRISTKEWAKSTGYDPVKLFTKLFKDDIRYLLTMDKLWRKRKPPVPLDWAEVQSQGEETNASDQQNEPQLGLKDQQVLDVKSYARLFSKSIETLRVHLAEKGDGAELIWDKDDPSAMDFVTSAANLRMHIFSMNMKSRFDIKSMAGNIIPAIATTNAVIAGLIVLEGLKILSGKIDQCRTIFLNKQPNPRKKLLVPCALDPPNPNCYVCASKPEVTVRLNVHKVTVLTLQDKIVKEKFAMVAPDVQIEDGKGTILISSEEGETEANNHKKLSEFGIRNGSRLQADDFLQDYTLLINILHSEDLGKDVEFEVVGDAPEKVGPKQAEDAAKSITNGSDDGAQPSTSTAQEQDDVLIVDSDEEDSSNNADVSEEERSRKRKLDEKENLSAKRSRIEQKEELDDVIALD

SUMO-activating enzyme [10] = target: T4, SUMO-activating enzyme; assay: blockers of UBC9-mediated SUMO conjugation – biochemical, AlphaScreen, SUMOylation inhibitor project, confirmation (AID 2018); format: functional
[11] = target: Induced myeloid leukemia cell differentiation protein Mcl-1 (Homo sapiens, UniProt Q07820); format: functional
[12] = target: T5, Voltage-gated N-type calcium channel alpha-1B subunit/Amyloid beta A4 precursor protein-binding family A member 1 (Homo sapiens, UniProt Q00975+Q02410); format: protein assay
T5 sequence (Q00975 whole entry): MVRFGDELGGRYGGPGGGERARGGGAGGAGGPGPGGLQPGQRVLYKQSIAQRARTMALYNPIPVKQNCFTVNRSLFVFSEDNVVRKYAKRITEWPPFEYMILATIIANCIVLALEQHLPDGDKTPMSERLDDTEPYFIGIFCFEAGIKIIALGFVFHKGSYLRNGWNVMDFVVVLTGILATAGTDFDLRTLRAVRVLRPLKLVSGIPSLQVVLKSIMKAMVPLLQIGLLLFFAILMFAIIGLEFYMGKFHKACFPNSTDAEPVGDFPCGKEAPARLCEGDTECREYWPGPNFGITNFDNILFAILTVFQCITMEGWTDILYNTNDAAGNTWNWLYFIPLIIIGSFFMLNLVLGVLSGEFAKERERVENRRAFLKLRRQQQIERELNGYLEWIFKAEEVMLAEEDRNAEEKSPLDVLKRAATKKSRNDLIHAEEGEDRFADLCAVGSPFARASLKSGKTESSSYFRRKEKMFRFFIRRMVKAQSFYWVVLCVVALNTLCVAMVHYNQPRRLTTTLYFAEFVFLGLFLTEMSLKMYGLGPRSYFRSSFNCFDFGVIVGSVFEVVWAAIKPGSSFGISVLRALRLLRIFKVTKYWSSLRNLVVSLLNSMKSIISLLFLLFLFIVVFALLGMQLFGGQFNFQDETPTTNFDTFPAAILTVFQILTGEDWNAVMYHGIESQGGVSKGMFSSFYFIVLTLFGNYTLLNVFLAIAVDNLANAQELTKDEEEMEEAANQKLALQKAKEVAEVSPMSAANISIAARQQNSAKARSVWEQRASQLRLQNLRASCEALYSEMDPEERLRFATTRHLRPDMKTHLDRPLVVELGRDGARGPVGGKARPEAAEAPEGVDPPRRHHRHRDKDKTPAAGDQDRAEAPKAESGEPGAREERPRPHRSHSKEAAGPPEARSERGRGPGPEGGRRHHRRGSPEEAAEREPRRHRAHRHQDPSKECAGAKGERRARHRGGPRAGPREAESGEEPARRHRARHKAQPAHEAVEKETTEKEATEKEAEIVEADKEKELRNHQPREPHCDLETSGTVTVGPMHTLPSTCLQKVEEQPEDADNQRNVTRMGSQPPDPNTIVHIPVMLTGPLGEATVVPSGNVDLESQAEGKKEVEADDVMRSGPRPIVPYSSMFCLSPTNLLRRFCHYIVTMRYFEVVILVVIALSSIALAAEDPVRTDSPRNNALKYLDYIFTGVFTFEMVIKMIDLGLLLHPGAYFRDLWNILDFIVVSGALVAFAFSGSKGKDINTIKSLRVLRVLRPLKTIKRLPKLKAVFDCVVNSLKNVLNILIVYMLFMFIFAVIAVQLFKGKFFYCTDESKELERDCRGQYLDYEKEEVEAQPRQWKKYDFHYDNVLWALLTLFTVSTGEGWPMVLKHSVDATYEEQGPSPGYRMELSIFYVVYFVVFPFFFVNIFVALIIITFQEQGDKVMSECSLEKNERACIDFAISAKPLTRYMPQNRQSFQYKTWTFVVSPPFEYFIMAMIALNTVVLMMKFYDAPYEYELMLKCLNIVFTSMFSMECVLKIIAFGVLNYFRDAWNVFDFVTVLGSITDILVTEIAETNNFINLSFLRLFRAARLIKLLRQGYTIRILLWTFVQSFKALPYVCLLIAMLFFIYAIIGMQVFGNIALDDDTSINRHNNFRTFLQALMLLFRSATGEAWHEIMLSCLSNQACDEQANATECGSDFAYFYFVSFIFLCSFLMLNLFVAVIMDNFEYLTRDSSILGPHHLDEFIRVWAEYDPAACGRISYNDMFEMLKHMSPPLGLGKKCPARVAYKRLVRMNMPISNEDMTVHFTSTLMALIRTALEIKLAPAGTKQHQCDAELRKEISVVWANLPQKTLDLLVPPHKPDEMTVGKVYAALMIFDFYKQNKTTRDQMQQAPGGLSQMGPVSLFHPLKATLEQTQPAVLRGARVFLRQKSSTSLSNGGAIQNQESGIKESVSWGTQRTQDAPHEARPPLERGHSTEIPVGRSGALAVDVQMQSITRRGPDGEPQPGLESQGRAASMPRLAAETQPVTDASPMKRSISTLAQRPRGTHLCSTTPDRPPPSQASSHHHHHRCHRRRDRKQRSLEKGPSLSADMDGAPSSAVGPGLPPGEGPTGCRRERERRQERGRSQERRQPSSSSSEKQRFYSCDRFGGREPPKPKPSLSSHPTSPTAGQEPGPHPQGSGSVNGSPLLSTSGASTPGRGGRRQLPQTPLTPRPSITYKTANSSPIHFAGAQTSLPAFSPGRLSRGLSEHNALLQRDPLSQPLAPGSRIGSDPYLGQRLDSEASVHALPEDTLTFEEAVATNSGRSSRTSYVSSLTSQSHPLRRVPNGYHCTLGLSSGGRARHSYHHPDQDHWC
T5 sequence (Q02410 whole entry): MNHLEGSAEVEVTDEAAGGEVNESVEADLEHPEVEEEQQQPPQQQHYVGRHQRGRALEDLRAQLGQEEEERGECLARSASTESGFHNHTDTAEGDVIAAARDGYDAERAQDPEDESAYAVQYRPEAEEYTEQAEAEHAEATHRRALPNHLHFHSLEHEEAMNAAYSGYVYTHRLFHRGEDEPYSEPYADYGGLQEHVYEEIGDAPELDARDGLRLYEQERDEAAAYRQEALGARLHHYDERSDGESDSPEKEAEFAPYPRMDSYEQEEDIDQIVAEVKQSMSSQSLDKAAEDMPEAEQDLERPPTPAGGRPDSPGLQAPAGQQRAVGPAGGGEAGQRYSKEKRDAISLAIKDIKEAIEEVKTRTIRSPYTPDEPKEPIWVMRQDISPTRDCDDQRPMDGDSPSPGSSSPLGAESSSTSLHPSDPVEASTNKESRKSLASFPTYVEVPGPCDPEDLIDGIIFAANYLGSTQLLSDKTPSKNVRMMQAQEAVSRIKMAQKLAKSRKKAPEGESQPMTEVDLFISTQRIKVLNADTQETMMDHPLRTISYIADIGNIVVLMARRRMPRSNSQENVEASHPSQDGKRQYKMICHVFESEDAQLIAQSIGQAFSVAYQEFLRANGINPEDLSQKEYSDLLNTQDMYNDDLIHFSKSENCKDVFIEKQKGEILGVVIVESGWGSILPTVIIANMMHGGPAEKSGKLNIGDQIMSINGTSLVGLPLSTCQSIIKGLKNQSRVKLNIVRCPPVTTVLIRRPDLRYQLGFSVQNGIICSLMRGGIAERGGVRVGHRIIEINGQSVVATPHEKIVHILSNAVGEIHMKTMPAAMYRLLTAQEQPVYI

[13] = target: T5, Voltage-gated N-type calcium channel alpha-1B subunit/Amyloid beta A4 precursor protein-binding family A member 1; format: protein assay; remark: listed apart in the source
Integrin alpha-4 = Integrin alpha-4 (Homo sapiens, UniProt P13612); assay: allosteric modulators of alpha4 integrin VLA-4 – cell-based, LIBS antibody binding, flow cytometry, SAR follow-up (AID 488791); format: functional
[14] = PhoP promoter GFP reporter reduction in Typhimurium – purified and synthesized compounds, set 2, PhoP regulon inhibitor project, dose response (AID 2831); format: functional
[15] = target: T6, Kappa-type opioid receptor (Homo sapiens, UniProt P41145); assay: SAR analysis of small molecule antagonists of the kappa opioid receptor via a luminescent beta-arrestin assay - Set 3. [Related pubchem assays (depositor defined):AID1777, AID1778, AID1785, AID1786, AID1966, AID2133, AID2136, AID2285, AID2495]; format: functional
T6 sequence (P41145 whole entry): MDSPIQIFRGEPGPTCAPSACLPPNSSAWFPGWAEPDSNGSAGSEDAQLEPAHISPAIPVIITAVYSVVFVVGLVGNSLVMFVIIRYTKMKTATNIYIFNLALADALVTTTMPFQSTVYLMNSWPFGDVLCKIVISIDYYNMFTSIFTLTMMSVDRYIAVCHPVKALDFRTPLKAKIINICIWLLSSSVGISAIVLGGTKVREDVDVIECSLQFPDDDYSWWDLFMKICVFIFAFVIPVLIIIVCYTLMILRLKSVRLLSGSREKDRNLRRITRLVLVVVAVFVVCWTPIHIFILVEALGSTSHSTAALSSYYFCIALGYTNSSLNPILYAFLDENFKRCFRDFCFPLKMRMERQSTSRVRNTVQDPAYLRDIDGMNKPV

[16] = target: Delta-type opioid receptor (Homo sapiens, UniProt P41143); assay: SAR Analysis of Antagonists of the DOR Receptor using an Image-Based Assay - Set 3. [Related pubchem assays (depositor defined):AID1777, AID1785]; format: functional;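 also: U2OS cells expressing DOR1 and beta-arrestin GFP stimulated with 100 nM SNC80; imaging of GFP-tagged beta-arrestin moving into spots after receptor activation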
Mu-type opioid receptor = Mu-type opioid receptor (Homo sapiens, UniProt P35372); assay: SAR Analysis of Antagonists of the MOR Receptor using an Image-Based Assay - Set 3. [Related pubchem assays (depositor defined):AID1777, AID1785, AID1786, AID1966, AID2133, AID2136, AID2284, AID2285, AID2420]; format: functional
[17] = target: T6, Kappa-type opioid receptor; assay: SAR analysis of Antagonists of the Kappa Opioid Receptor (KOR) using an Image-Based Assay - Set 4. [Related pubchem assays (depositor defined):AID1777, AID1785]; format: functional
[18] = target: T7, Intestinal-type alkaline phosphatase (Homo sapiens, UniProt P09923); assay: Dose Response confirmation of uHTS hits from a small molecule inhibitors of human intestinal alkaline phosphatase via a luminescent assay. [Related pubchem assays (depositor defined):AID2544, AID2574]; format: functional
T7 sequence (P09923 whole entry): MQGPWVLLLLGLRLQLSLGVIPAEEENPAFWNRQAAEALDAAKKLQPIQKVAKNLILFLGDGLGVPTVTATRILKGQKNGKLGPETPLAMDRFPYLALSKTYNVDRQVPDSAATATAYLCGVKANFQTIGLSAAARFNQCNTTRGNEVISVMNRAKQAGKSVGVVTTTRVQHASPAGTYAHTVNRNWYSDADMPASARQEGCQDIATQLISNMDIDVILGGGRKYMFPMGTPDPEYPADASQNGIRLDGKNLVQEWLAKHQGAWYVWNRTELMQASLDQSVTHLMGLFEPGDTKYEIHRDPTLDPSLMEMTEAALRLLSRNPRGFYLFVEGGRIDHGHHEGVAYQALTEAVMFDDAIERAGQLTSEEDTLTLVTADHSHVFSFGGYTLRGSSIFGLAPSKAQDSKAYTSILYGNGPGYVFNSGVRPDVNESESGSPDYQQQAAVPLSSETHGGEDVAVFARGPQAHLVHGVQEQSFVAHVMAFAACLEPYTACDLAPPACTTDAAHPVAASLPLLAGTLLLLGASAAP

[19] = target: T7, Intestinal-type alkaline phosphatase; assay: human intestinal alkaline phosphatase activators, dose response, biochemical, luminescence, uHTS hits (AID 463120); format: functional
Coagulation factor XII = target: T8, Coagulation factor XII (Homo sapiens, UniProt P00748); assay: Factor XIIa Dose Response Confirmation from Single Well HTS. [Related pubchem assays (depositor defined):AID701]; format: functional
T8 sequence (P00748 whole entry): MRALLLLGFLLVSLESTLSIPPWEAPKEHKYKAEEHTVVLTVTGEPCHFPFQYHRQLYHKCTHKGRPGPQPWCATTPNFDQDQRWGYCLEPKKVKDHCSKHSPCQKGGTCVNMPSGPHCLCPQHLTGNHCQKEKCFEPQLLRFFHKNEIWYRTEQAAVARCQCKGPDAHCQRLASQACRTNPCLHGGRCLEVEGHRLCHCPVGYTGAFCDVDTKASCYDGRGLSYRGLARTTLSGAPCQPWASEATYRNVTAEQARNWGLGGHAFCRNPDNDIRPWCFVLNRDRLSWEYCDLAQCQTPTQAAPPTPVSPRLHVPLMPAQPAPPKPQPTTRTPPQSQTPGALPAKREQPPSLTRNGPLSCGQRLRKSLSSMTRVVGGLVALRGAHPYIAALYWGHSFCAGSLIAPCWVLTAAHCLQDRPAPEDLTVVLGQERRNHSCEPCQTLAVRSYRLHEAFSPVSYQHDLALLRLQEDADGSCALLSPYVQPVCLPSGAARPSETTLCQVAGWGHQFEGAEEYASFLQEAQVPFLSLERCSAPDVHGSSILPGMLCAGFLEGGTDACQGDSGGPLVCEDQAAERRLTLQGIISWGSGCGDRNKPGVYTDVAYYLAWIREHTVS

O=C(NNc1ccccn1)C(=O)NNS(=O)(=O)c1ccc(Cl)cc1
AC50 [1]: 0.786 µM (active) | IC50 [2]: > 100 µM (inactive)

Cc1ccc(S(=O)(=O)Nc2ccc(NC(=O)c3c(F)c(F)c(F)c(F)c3F)cc2)cc1
EC50 (Mucolipin-3): > 29.9 µM (not active) | CC50 (Vero): 23 µM (active) | EC50 [3]: 5.66 µM (active) | EC50 (Ion channel NompC): > 29.9 µM (inactive)

Cc1nn(Cc2ccccc2)c(Cl)c1C(=O)OC(C)C(=O)Nc1ccc(F)cc1Cl (stereo not given)
IC50 [4]: 5.89 µM (active) | EC50 [5]: > 50 µM (inactive) | IC50 [6]: > 111 µM (not active)

COc1cc(OC)c2c(O)c3c(c(-c4c5c(c(O)c6c(OC)cc(OC)cc46)CO[C@@H](C)[C@H]5O)c2c1)[C@H](O)[C@H](C)OC3
EC50 [7]: > 300 µM (not active) | EC50 [8]: > 300 µM (not active) | IC50 (SUMO-activating enzyme [9]): 17.1 µM (active) | IC50 (SUMO-activating enzyme [10]): 6.03 µM (active) | IC50 [11]: 2.51 µM (not active) | IC50 [12]: 20.3 µM (active) | IC50 [13]: 4.27 µM (active)

Cc1ccc(NC(=O)c2cc(N3C(=O)CCC3=O)ccc2N2CCOCC2)cc1Cl
EC50 (Integrin alpha-4): 23.3 µM (active)

O=C1C2=C(Nc3ccccc3SC2c2cccc(Cl)c2)c2ccccc21 (stereo not given)
IC50 [14]: > 150 µM (active)

COc1ccc(N2CCN(CCCNC(=O)Cn3c(=O)c4cccn4c4cc(Br)cnc43)CC2)c(OC)c1
IC50 [15]: 2.82 µM (active) | IC50 [16]: > 32 µM (inactive) | IC50 (Mu-type opioid receptor): 10.2 µM (inactive) | IC50 [17]: 3.02 µM (active)

CC1(C)C[C@@H](O)CC2(C1)C[C@]1(C)CC(O)[C@H]2C(C)(C)C1 (stereo not given in full)
IC50 [18]: > 100 µM (inactive) | EC50 [19]: > 100 µM (inactive)

Cc1ccc(CNC(=O)C[S+]([O-])CC(=O)O)cc1 (stereo not given)
IC50 (Coagulation factor XII): > 50 µM (inactive)
